# According to patent publication US9850283B2, “Macrocyclic inhibitors of the PD-1/PD-L1 and CD80(B7-1)/PD-L1 protein/protein interactions” (BRISTOL-MYERS SQUIBB COMPANY, priority 2013, dated 2017):
# Positions of bridges follow the written chain, without caps; N, C: chain ends. Non-standard residues stand in square brackets, D forms with d. Residues, ends and D or L forms follow the SMILES beside them. Trp(7-Me) = Cc1cccc2c(C[C@H](N)C(=O)O)c[nH]c12; cisHyp = O=C(O)[C@@H]1C[C@H](O)CN1; NMeNle = CCCC[C@H](NC)C(=O)O; NMeA = CN[C@@H](C)C(=O)O; Orn = NCCC[C@H](N)C(=O)O; Dap = NC[C@H](N)C(=O)O
# Columns and labels:
# Human PD-L1/PD-1 = target: T1, Human PD-L1/PD-1 (Homo sapiens, UniProt Q9NZQ7); experiment: HTRF PD-1-Ig/PD-L1-His binding assay (human PD-L1); conditions: cluster symbol; read-out: HTRF IC50 cluster
# T1 construct: made in house; host or cells: HEK293T
# In short: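 Soluble Fc-fused PD-1 and His-tagged PD-L1 (truncated before the transmembrane region) were combined in dPBS with 0.1% (w/v) BSA and 0.05% (v/v) Tween-20. Binding was read by HTRF using europium cryptate anti-Ig antibody (1 nM final) and APC anti-His antibody (20 nM final).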
# [1] = target: T2, LK35.2-hPD-L1 cells / PE-labeled PD-1-Ig (Homo sapiens, UniProt Q9NZQ7); experiment: LK35.2-hPD-L1 cell binding high-content screening assay; assay type: cell-based; conditions: cluster symbol; cell line of CBA not given (LK35.2-hPD-L1 or 293T-hPD-L1); read-out: CBA IC50 cluster
# T2 construct: expressed in transfected cells; host or cells: LK35.2 mouse B cell line
# In short: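 Using overnight-cultured LK35.2-hPD-L1 mouse B cells, compound was co-incubated with phycoerythrin-tagged human PD-1-Ig (final 1 nM) at 37 °C for one hour. Unbound label was removed by triple dPBS washing prior to high-content image acquisition and analysis.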
# T2 sequence (Q9NZQ7 19-290): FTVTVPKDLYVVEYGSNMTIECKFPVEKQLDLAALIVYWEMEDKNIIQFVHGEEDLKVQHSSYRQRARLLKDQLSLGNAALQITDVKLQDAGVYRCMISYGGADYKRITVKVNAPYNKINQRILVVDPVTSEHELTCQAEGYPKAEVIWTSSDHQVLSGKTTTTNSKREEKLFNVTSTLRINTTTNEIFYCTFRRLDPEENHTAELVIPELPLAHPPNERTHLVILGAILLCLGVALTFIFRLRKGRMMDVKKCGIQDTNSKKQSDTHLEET
# T1 sequence (Q9NZQ7 with tags, fused parts or gaps): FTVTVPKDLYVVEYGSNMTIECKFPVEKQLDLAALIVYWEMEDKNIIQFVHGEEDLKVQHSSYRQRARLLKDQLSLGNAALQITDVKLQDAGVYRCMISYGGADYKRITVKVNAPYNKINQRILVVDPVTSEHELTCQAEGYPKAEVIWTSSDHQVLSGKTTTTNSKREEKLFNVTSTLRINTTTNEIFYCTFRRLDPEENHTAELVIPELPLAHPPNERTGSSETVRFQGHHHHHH
SMILES,IC50 (Human PD-L1/PD-1) [nM],IC50 [1] [nM]
CCCC[C@H]1C(=O)N(C)[C@@H](CCCC)C(=O)N[C@@H](CCCNC(=N)N)C(=O)N[C@H](C(=O)NCC(N)=O)CSCC(=O)N[C@@H](Cc2ccc(O)cc2)C(=O)N(C)[C@@H](C)C(=O)N[C@@H](CC(N)=O)C(=O)N2CCC[C@H]2C(=O)N[C@@H](Cc2cnc[nH]2)C(=O)N[C@@H](CC(C)C)C(=O)N2CCC[C@H]2C(=O)N[C@@H](Cc2c[nH]c3ccccc23)C(=O)N[C@@H](CO)C(=O)N[C@@H](Cc2c[nH]c3c(C)cccc23)C(=O)N1C [Example 1144] ({CH2CO}-Y[NMeA]NPHLPWS[Trp(7-Me)][NMeNle][NMeNle]RCG-NH2; thioether N-14),> 30.5,4.78 to 72.9
CCCC[C@H]1C(=O)N(C)[C@@H](CCCC)C(=O)N[C@@H](CCCN)C(=O)N[C@H](C(=O)NCC(N)=O)CSCC(=O)N[C@@H](Cc2ccc(O)cc2)C(=O)N(C)[C@@H](C)C(=O)N[C@@H](CC(N)=O)C(=O)N2CCC[C@H]2C(=O)N[C@@H](CN)C(=O)N[C@@H](CC(C)C)C(=O)N2C[C@@H](O)C[C@H]2C(=O)N[C@@H](Cc2c[nH]c3ccccc23)C(=O)N[C@@H](CO)C(=O)N[C@@H](Cc2c[nH]c3ccccc23)C(=O)N1C [Example 1145] ({CH2CO}-Y[NMeA]NP[Dap]L[cisHyp]WSW[NMeNle][NMeNle][Orn]CG-NH2; thioether N-14),6.76 to 30.3,0.158 to 4.71
CCCC[C@H]1C(=O)N(C)[C@@H](CCCC)C(=O)N[C@@H](CCCNC(=N)N)C(=O)N[C@H](C(=O)NCC(N)=O)CSCC(=O)N[C@@H](Cc2ccc(O)cc2)C(=O)N(C)[C@@H](C)C(=O)N[C@@H](CCCN)C(=O)N2CCC[C@H]2C(=O)N[C@@H](C)C(=O)N[C@@H](CC(C)C)C(=O)N2C[C@@H](O)C[C@H]2C(=O)N[C@@H](Cc2c[nH]c3ccccc23)C(=O)N[C@@H](CO)C(=O)N[C@@H](Cc2c[nH]c3ccccc23)C(=O)N1C [Example 1146] ({CH2CO}-Y[NMeA][Orn]PAL[cisHyp]WSW[NMeNle][NMeNle]RCG-NH2; thioether N-14),6.76 to 30.3,> 74.3
CCCC[C@H]1C(=O)N(C)[C@@H](CCCC)C(=O)N[C@@H](CCCNC(=N)N)C(=O)N[C@H](C(=O)NCC(N)=O)CSCC(=O)N[C@@H](Cc2ccc(O)cc2)C(=O)N(C)[C@@H](C)C(=O)N[C@@H](CCCN)C(=O)N2CCC[C@H]2C(=O)N[C@@H](C)C(=O)N[C@@H](CCC(=O)O)C(=O)N2C[C@@H](O)C[C@H]2C(=O)N[C@@H](Cc2c[nH]c3ccccc23)C(=O)N[C@@H](CO)C(=O)N[C@@H](Cc2c[nH]c3ccccc23)C(=O)N1C [Example 1147] ({CH2CO}-Y[NMeA][Orn]PAE[cisHyp]WSW[NMeNle][NMeNle]RCG-NH2; thioether N-14),6.76 to 30.3,4.78 to 72.9
CCCC[C@H]1C(=O)N(C)[C@@H](CCCC)C(=O)N[C@@H](CCCNC(=N)N)C(=O)N[C@H](C(=O)NCC(N)=O)CSCC(=O)N[C@@H](Cc2ccc(O)cc2)C(=O)N2CCC[C@H]2C(=O)N[C@@H](CC(N)=O)C(=O)N2CCC[C@H]2C(=O)N[C@@H](Cc2cnc[nH]2)C(=O)N[C@@H](CC(C)C)C(=O)N2C[C@@H](O)C[C@H]2C(=O)N[C@@H](Cc2c[nH]c3ccccc23)C(=O)N[C@@H](CO)C(=O)N[C@@H](Cc2c[nH]c3ccccc23)C(=O)N1C [Example 1148] ({CH2CO}-YPNPHL[cisHyp]WSW[NMeNle][NMeNle]RCG-NH2; thioether N-14),6.76 to 30.3,4.78 to 72.9
CCCC[C@H]1C(=O)N(C)[C@@H](CCCC)C(=O)N[C@@H](CCCN)C(=O)N[C@H](C(=O)NCC(N)=O)CSCC(=O)N[C@@H](Cc2ccc(O)cc2)C(=O)N2CCC[C@H]2C(=O)N[C@@H](CC(=O)O)C(=O)N2CCC[C@H]2C(=O)N[C@@H](CN)C(=O)N[C@@H](CC(C)C)C(=O)N2C[C@@H](O)C[C@H]2C(=O)N[C@@H](Cc2c[nH]c3ccccc23)C(=O)N[C@@H](CO)C(=O)N[C@@H](Cc2c[nH]c3ccccc23)C(=O)N1C [Example 1149] ({CH2CO}-YPDP[Dap]L[cisHyp]WSW[NMeNle][NMeNle][Orn]CG-NH2; thioether N-14),6.76 to 30.3,4.78 to 72.9
